Ends that are not written are not given here. Peptide text beside a SMILES is read from it.
Legend:
[1] = test system: Escherichia coli—ATCC 25922 “wild type”; type: cell-based
Summary of the method: (§1)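 MIC/MBC of cationic antimicrobial peptides by a broth method adapted for cationic peptides, against E. coli ATCC 25922 and clinical MDR isolates (ESBL, KPC, NDM). Some peptides made as TFA or acetate salts. Each run on a different day with multiple replicates.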

[2] = test system: Escherichia coli—Carbapenemase-producing organism; Klebsiella pneumoniae carbapenemase; type: cell-based
Summary of the method: as §1

[3] = test system: Escherichia coli—Carbapenemase-producing organism; New-Dehli Metallobetalactamase; type: cell-based
Summary of the method: as §1

[4] = test system: Escherichia coli—Extended spectrum beta-lactamase; type: cell-based
Summary of the method: as §1

[5] = test system: Methicillin resistant Staphylococcus aureus; type: cell-based; conditions: Methicillin resistant
Method: (§2) Independent experiments were conducted with different strains of Staphylococcus aureus—ATCC 29213 “wild type”; and Staphylococcus aureus—Methicillin resistant Staphylococcus aureus.
(§3) The ATCC (American Type Culture Collection) strains received from Cedarlane. Multi drug resistant (MDR) strains, as clinical isolates, were received from the laboratory of Dr. Linda Hoang.
(§4) Putative antimicrobial peptides were synthesized by GeneScript. A-list antimicrobial peptides re-synthesized by GeneScript. P2_CCH, P5_CCH, and P5_CCH_A19K were each synthesized under two conditions: standard synthesis using TFA, and the other with TFA-removal using acetate as a counter-ion. A MIC method, adapted for use with cationic antimicrobial peptides, was used to evaluate MIC antimicrobial activity (Hancock 1999).
(§5) The following data are presented to show the activity (MIC/MBC in μg/mL) of certain antimicrobial peptides described herein relative to a modified/synthetic version having a specified substitution. While data presented in tables above may be presented again, or may be represented in data provided in the tables below, such duplication is believed to assist the reader in readily noting comparisons. Different Run Numbers noted in the following tables denotes experiments conducted on different days, with each run reflecting multiple n values.

[6] = test system: Staphylococcus aureus—ATCC 29213 “wild type”; type: cell-based; conditions: ATCC 29213
Method: as §2, §3, §4, §5

Salmonella Enteritidis = type: cell-based
Text: as §4, §5

[7] = test system: Salmonella Heidelberg (MDR); type: cell-based
Summary of the method: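 MIC/MBC in μg/mL determined by a broth MIC method adapted for cationic antimicrobial peptides against clinical-isolate multidrug-resistant strain. Some peptides were tested as TFA or acetate counter-ion preparations; runs on different days, each with multiple replicates.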

Hemolysis test (HC50) = conditions: red blood cells
Method: Peptides were tested for activity using as minimum inhibitory concentration (MIC), and minimum bactericidal concentration (MBC) determinations. For certain peptides, a hemolysis test was also conducted to determine HC50 (μg/mL) as an indicator of hemolytic activity based on the concentration of an antimicrobial compound that kills 50% red blood cells.
In Table 27, the designations P2, P2M, P3, P3M, P4, P4M, P5, P5M, P6, and P6M refer to peptides P2_CCH, P2_CCH_T15K_P7R, P3_CCH, P3_CCH_D8K_Q23C, P4_CCH, P4_CCH_P31K, P5_CCH, P5_CCH_A19K, P6_CCH, and P6_CCH_S12K, respectively, as defined above.

Compound: CC[C@H](C)[C@H](NC(=O)[C@@H](NC(=O)[C@@H]1CCCN1C(=O)[C@H](Cc1ccccc1)NC(=O)[C@@H](N)Cc1ccccc1)[C@@H](C)CC)C(=O)N[C@@H](C)C(=O)N[C@@H](CCCNC(=N)N)C(=O)N[C@@H](CC(C)C)C(=O)N[C@@H](C)C(=O)N[C@@H](C)C(=O)N[C@@H](CCCCN)C(=O)N[C@H](C(=O)N[C@H](C(=O)N1CCC[C@H]1C(=O)N[C@@H](CO)C(=O)N[C@@H](CC(C)C)C(=O)N[C@H](C(=O)N[C@@H](CS)C(=O)N[C@@H](CCCCN)C(=O)N[C@H](C(=O)N[C@H](C(=O)N[C@@H](CCCCN)C(=O)N[C@@H](CCCCN)C(=O)N[C@@H](CS)C(=O)O)[C@@H](C)O)C(C)C)C(C)C)[C@@H](C)CC)C(C)C [Peptide P5_CCH_A19K] (H-FFPIIARLAAKVIPSLVCKVTKKC-OH; N-terminus and C-terminus assumed)
- Minimum Inhibitory Concentration (MIC) [1]: 4 to 16 µg/mL
- Minimum Inhibitory Concentration (MIC) [2]: 4 to 16 µg/mL
- Minimum Inhibitory Concentration (MIC) [3]: 4 to 16 µg/mL
- Minimum Inhibitory Concentration (MIC) [4]: 4 to 16 µg/mL
- Minimum Inhibitory Concentration (MIC) [5]: 2 to 8 µg/mL
- Minimum Inhibitory Concentration (MIC) [6]: 2 to 8 µg/mL
- Minimum Inhibitory Concentration (MIC) (Salmonella Enteritidis): 16 to 64 µg/mL
- Minimum Inhibitory Concentration (MIC) [7]: 16 to 64 µg/mL
- HC50 (Hemolysis test (HC50); RPMI): 64 to 128 µg/mL

Compound: FFPRVLRLANKFLPKIYCALPKSVGN [P2_CCH_T15K_P7R]
- Minimum Inhibitory Concentration (MIC) [1]: 4 to 8 µg/mL
- MBC [2]: 8 µg/mL
- MIC [2]: 8 µg/mL
- Minimum Inhibitory Concentration (MIC) [2]: 8 µg/mL
- Minimum Inhibitory Concentration (MIC) [3]: 4 to 8 µg/mL
- Minimum Inhibitory Concentration (MIC) [4]: 2 to 8 µg/mL
- Minimum Inhibitory Concentration (MIC) [5]: 32 to 64 µg/mL
- Minimum Inhibitory Concentration (MIC) [6]: 64 to 128 µg/mL
- Minimum Inhibitory Concentration (MIC) (Salmonella Enteritidis): 32 to 64 µg/mL
- Minimum Inhibitory Concentration (MIC) [7]: 16 to 64 µg/mL
- HC50 (Hemolysis test (HC50); HC50 (hemolysis test)): 64 µg/mL

Reference: patent US12280090B2, “Antimicrobial peptides” (priority 2018, dated 2025)
